# Results from patent US20100041760A1, “MONOARYL AMINOTETRALINES” (priority 2008, published 2010).
# Biological target: T1, human CRTH2 (Homo sapiens, UniProt Q9Y5Y4)
# T1 sequence (Q9Y5Y4 1-395): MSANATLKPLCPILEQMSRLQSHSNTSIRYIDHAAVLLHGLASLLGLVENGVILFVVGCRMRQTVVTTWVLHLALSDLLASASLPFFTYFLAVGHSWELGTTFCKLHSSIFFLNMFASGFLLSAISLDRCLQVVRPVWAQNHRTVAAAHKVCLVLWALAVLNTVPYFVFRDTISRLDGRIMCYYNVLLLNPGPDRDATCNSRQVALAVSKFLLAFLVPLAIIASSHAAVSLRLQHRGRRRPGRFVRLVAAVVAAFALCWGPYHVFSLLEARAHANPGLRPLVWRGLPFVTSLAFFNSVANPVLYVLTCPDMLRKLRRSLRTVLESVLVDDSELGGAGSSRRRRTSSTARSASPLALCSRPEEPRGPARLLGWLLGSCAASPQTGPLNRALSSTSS
# Assay: Calcium Flux Assay Using Fluorometric Imaging Plate Reader (FLIPR)
# Format: cell-based
# Design: expressed in transfected cells; host or cells: CHO-K1 previously transfected with G-alpha 16
# Details: CHO-K1 cells with G-alpha 16 and human CRTH2; inhibition of ligand (DK-PGD2) response; read-out: IC50 value in FLIPR calcium flux assay
# Method: CHO-K1 cells previously transfected with G-alpha 16 were subsequently transfected with the human CRTH2 receptor and the neomycin resistance gene. Following selection in 800 μg/mL G418 (geneticin), individual clones were assayed for their receptor expression based on staining with an anti human CRTH2 IgG, followed by assaying for their response to 13,14-dihydro-15-keto Prostaglandin D2 (DK-PDG2) (ligand) in the Ca^2+ Flux assay. Positive clones were then cloned by limiting dilution cloning. The transfected cells were cultured in Ham's F-12 medium supplemented with 10% fetal bovine serum, 2 mM glutamine, 100 U/mL penicillin/100 μg/mL streptomycin, 200 μg/mL hygromycin B, and 800 μg/mL G418 (geneticin). Cells were harvested with trypsin-EDTA (trypsin-ethylenediaminetetraacetic acid) and counted using ViaCount® reagent (from Guava Technologies, Inc. which contains two DNA-binding dyes that enable the reagent user to distinguish between viable and non-viable cells). The cell suspension volume was adjusted to 2.5×10^5 cells /mL with complete growth media. Aliquots of 50 μL were dispensed into BD Falcon™ 384 well black/clear microplates (from BD Biosciences, a division of Becton, Dickinson and Company) and the microplates were placed in a 37° C. CO2 incubator overnight. The following day, the microplates were used in the assay.
# Loading Buffer containing dye (from the FLIPR® Calcium 3 Assay Kit from Molecular Devices, a division of MDS Analytical Technologies and MDS Inc.) was prepared by dissolving the contents of one bottle into 200 mL Hank's Balanced Salt Solution containing 20 mM HEPES (4-(2-hydroxyethyl)-1-piperazineethanesulfonic acid) and 2.5 mM probenecid. Growth media was removed from the cell plates and 25 μL of Hank's Balanced Salt Solution (HBSS) containing 20 mM HEPES, 0.05% BSA and 2.5 mM probenecid was added to each well followed by 25 μL of diluted dye using a Multidrop dispenser. The plates were then incubated for 1 hour at 37° C.
# During the incubation, test compound plates were prepared by adding 90 μL of HBSS/20 mM HEPES/0.005% BSA buffer to the 2 μL of serial diluted compounds. To prepare serial diluted compounds, 20 mM stocks of compounds were dissolved in 100% DMSO. The compound dilution plate was set up as follows: well #1 received 5 μL of compound plus 10 μL of DMSO. Wells 2-10 received 10 μL of DMSO. 5 μL was mixed and transferred from well #1 into well #2. 1:3 serial dilutions were continued out 10 steps. 2 μL of diluted compound was transferred into duplicate wells of a 384 well “assay plate” and then 90 μL of buffer was added.
# After incubation, both the cell and “assay plate” plates were brought to the fluorometric imaging plate reader (FLIPR®) and 20 μL of the diluted compounds were transferred to the cell plates by the FLIPR®. Plates were then incubated for 1 hour at room temperature. After the 1 hour incubation, plates were returned to the FLIPR® and 20 μL of 4.5× concentrated ligand was added to the cell plates. During the assay, fluorescence readings were taken simultaneously from all 384 wells of the cell plate every 1.5 seconds. Five readings were taken to establish a stable baseline, then 20 μL of sample was rapidly (30 μL/sec) and simultaneously added to each well of the cell plate. The fluorescence was continuously monitored before, during and after sample addition for a total elapsed time of 100 seconds. Responses (increase in peak fluorescence) in each well following agonist addition were determined. The initial fluorescence reading from each well, prior to ligand stimulation, was used as a zero baseline value for the data from that well. The responses were expressed as % inhibition of the buffer control. […]
row,Compound,IC50 [µM]
1,"CN([C@@H]1CCCc2c(OCC(=O)O)cccc21)S(=O)(=O)c1cc(F)cc(C(F)(F)F)c1 [Example 1-1, {(R)-5-[(3-fluoro-5-trifluoromethyl-benzenesulfonyl)-methyl-amino]-5,6,7,8-tetrahydro-naphthalen-1-yloxy}-acetic acid]",1.77
2,"CCN(CC)c1cc(C(F)(F)F)cc(S(=O)(=O)N(C)[C@@H]2CCCc3c(OCC(=O)O)cccc32)c1 [Example 4-2, {(R)-5-[(3-diethylamino-5-trifluoromethyl-benzenesulfonyl)-methyl-amino]-5,6,7,8-tetrahydro-naphthalen-1-yloxy}-acetic acid]",2.01
3,"CN([C@@H]1CCCc2c(OCC(=O)O)cccc21)S(=O)(=O)c1cc(OC2CCCC2)cc(C(F)(F)F)c1 [Example 9-3, {(R)-5-[(3-cyclopentyloxy-5-trifluoromethyl-benzenesulfonyl)-methyl-amino]-5,6,7,8-tetrahydro-naphthalen-1-yloxy}-acetic acid]",0.462

# More lines, now with the values ahead:
row,IC50 [µM],Compound
1,0.094,"O=C(O)COc1cccc2c1CCC[C@H]2NS(=O)(=O)c1cc(F)cc(F)c1 [Example 10-5, [(R)-5-(3,5-difluoro-benzenesulfonylamino)-5,6,7,8-tetrahydro-naphthalen-1-yloxy]-acetic acid]"
2,0.313,"O=C(O)COc1cccc2c1CCC[C@H]2NS(=O)(=O)c1cc(F)cc(C(F)(F)F)c1 [Example 10-12, [(R)-5-(3-fluoro-5-trifluoromethyl-benzenesulfonylamino)-5,6,7,8-tetrahydro-naphthalen-1-yloxy]-acetic acid]"

# Same assay, conditions: CHO-K1 cells with G-alpha 16 and human CRTH2; unit inferred; read-out: IC50 value in FLIPR calcium flux assay (unit inferred)
row,IC50 [µM],Compound
1,~3,"O=C(O)COc1cccc2c1CCC[C@H]2NS(=O)(=O)c1cc(Cl)cc(Cl)c1 [Example 10-1, [(R)-5-(3,5-dichloro-benzenesulfonylamino)-5,6,7,8-tetrahydro-naphthalen-1-yloxy]-acetic acid]"
